Measured values from US20070009503A1, “Antibiotic, Compositions Containing the Antibiotic, and Methods for Administering the Antibiotic and/or Said Compositions to Livestock” (priority 2004, published 2007).
Where no end group is shown, it is not given here.

System: Lactobacillus sakei JCM1157
Experiment: Growth inhibition zones on MRS agar plates containing protease Umamizyme G, overlaid with indicator strain
Format: cell-based
Conditions: Example 2, protease 0 U/mL
Description: The lactic acid bacterium Weissella sp. AJ110263 (FERM P-19577), isolated from fermented milk matsoon, and the lactic acid bacteria Pediococcus pentosaceus JCM5885, Pediococcus pentosaceus JCM5890, Lactobacillus plantarum JCM1149, and Lactobacillus salivarius JCM1231, obtained from type cultures, were precultured and cultured on MRS liquid medium (Table 1 above). The culture temperature was 30° C. for Weissella sp. and 37° C. for the other strains. The above lactic acid bacteria were inoculated onto and cultured for 24 hours on MRS agar medium plates to which “Umamizyme G”, a protease derived from Aspergillus, had been added in quantities of 0 U/mL (none added), 200 U/ML, and 400 U/mL. In culturing, 100 mL of MRS medium was added to a 500 mL Sakaguchi flask, […] was inoculated, and the medium was shaken 100 times/min.
These plates were cultured for 24 hours at 30° C., resulting in the formation of growth inhibition zones in the indicator strains (Table 10 below).
Lactococcus lactis NCD0497 (a bacterium producing nisin A) and Lactococcus lactis NCIMB702054 (a bacterium producing nisin Z) were separately cultured in MRS liquid medium at 30° C. In the same manner as in Example 1, antibiotic evaluation was conducted using Lactobacillus sakei strain JCM1157 as an indicator strain. […]

In the case of “Nisin A: nisin A 1,000 IU/mL solution made by ICN Biomedical, spotted without bacterial strains (ITSISLCTPGCKTGALMGCNMKTATCHCSIHVSK; also: lantibiotic, lanthionine bridges and dehydro residues not placed; UniProt P13068 24-57, looked up)”, the “diameters of the proliferation inhibition zones” value is reported as 30.
